Earlier results in patent US10406122B2 (priority 2011, dated 2019).
Several values for one entry are separate records, joined by “and”; a condition that tells them apart may be missing. Equal values may be shown once. Where a name gives a salt, the structure may show the parent alone. Read-outs that look alike come from different tables or passages of the source.

Tests used:
[1] = cited from earlier work
mice and rats = conditions: cited from earlier work
[2] = in vitro and in vivo; cited from earlier work
[3] = test system: patients undergoing abdominal surgery; conditions: both groups; cited from earlier work
[4] = in vivo, cited from earlier work

## COc1cccc([C@]2(O)CCCC[C@H]2CN(C)C)c1 (racemic) [Tramadol, (±)cis-2-[(dimethylamino)methyl]-1-(3-methoxyphenyl) cyclohexanol hydrochloride]
[1]; 100 mg PO
  estimated absorption of the oral dose: 86-88%
[1]; 100 mg i.v.
  AUC0-24 h: 3709 ± 977 ng·h/mL
  Vd: 203 L
  t1/2: 5.2 h
[1]; 100 mg i.v., hydrochloride
  CL/F (total clearance): 467 ± 124 mL/min
[1]; 100 mg i.v., listed as tramadol, hydrochloride
  CL/F (total clearance): 710 ± 174 mL/min
[1]; 100 mg oral dosing
  time to peak serum concentration (tmax): approximately 2 hours
[1]; 100 mg p.o.
  AUC0-24 h: 2488 ± 774 ng·h/mL
  Cmax: 280 ± 49 ng/mL
  Vd: 306 L
  t1/2: 5.1 h
[1]; 100 mg p.o., hydrochloride
  CL/F (total clearance): 710 ± 174 mL/min
[1]; 100 mg p.o., listed as tramadol, hydrochloride
  CL/F (total clearance): 467 ± 124 mL/min
[1]; 100 mg, comparison of AUC values, hydrochloride
  absolute bioavailability of the oral dose: 68±13% and 68%
[1]; after IV administration
  distribution half-life in the initial phase: 0.31 ± 0.17 h
  half-life of slower distribution phase: 1.7 ± 0.4 h
[1]; estimated
  first pass metabolism: ~20%
Mice and rats
  carcinogenic potential: no evidence of carcinogenic potential
[2]
  genotoxic potential: no evidence of genotoxic potential
[3]
  patients reporting adverse events: 25%
[4]; iv
  half-life: 5.6 h
[4]; po
  absolute bioavailability: 90-100%
[4]
  increase of elimination half-life: approximately 2 fold
